Results taken from patent US20260365633A1, “Novel PEM Structures for SBX” (Roche Sequencing Solutions, Inc., priority 2023, published 2026).

The compounds below were run against T1, C4760 DNA polymerase (a variant of DPO4) (Saccharolobus solfataricus, UniProt Q97W02, A155G/A42V/D156R/D292Y/D294N/E291S/E324K/E325K/E327K/E63R/E79L/G187P/G299W/I153V/I189F/I248T/I295S/K152A/K317Q/K321Q/K56Y/K78D/L293W/M76W/N188Y/P184Q/Q82W/Q83G/R300S/S297Y/S86E/T290K/T301W/V289W/V296Q) (assay: Primer extension on 45mer RNA template (HIV2) with C4760 polymerase, gel). Settings: 2 Mm PEM, 45mer RNA template derived from HIV2, Kod SSB, 30 minutes at 37 °C.
T1 construct: Eco or Kod SSB in reaction as additive
T1 sequence (Q97W02 1-340 A155G/A42V/D156R/D292Y/D294N/E291S/E324K/E325K/E327K/E63R/E79L/G187P/G299W/I153V/I189F/I248T/I295S/K152A/K317Q/K321Q/K56Y/K78D/L293W/M76W/N188Y/P184Q/Q82W/Q83G/R300S/S297Y/S86E/T290K/T301W/V289W/V296Q): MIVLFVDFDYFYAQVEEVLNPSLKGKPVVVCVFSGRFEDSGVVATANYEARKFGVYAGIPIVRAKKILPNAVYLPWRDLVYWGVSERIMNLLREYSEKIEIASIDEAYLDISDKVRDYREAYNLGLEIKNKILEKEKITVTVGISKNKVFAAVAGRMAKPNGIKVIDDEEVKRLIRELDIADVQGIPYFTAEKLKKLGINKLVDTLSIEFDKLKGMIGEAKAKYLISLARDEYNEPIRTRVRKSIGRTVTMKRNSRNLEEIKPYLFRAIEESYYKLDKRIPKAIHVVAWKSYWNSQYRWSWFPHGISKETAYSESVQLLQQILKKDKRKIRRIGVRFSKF
Type: biochemical, Sulfolobus solfataricus
Experimental: To begin to investigate the potential of PEMs to enhance diverse polymerase reactions, the ability of PEMS to enable DNA polymerase to utilize RNA as a template was tested. An initial screen of several compounds set forth in Table 1 was conducted using a 45mer RNA template derived from the HIV2 genome sequence. Primer extension reactions included the following reagents: 50 Mm TrisCl, 200 Mm NH4OAc, 20% PEG8K, 5% NMS, 0.6 nmol PP-60.20, 0.6 Mm MnCl2, 2 μg Kod single-strand binding protein (SSB), 1 M urea, 50 pmol each XNTP, 0.5 pmol template, 0.5 pmol [COMPOUND LEFT OUT] primer, 1.2 μg purified recombinant C4760 DNA polymerase (a variant of DPO4, see SEQ ID NO: 2), and 2 Mm PEM. 10 μL primer extension reactions were run for 30 minutes at 37 °C and reaction products were analyzed by gel electrophoresis.

Compound | PEM activity on RNA template
CCNC(=O)c1cc(-c2cn(-c3ccc(C(=O)O)c(O)c3)nn2)nc(-c2cn(-c3ccc(C(=O)O)c(O)c3)nn2)c1 [Compound 17, 4,4′-((4-(ethylcarbamoyl)pyridine-2,6-diyl)bis(1H-1,2,3-triazole-4,1-diyl))bis(2-hydroxybenzoic acid)] | display PEM activity on an RNA template
CCN(CC)C(=O)c1cc(-c2cn(-c3ccc(C(=O)O)c(O)c3)nn2)nc(-c2cn(-c3ccc(C(=O)O)c(O)c3)nn2)c1 [Compound 49, 4,4′-((4-(diethylcarbamoyl)pyridine-2,6-diyl)bis(1H-1,2,3-triazole-4,1-diyl))bis(2-hydroxybenzoic acid)] | display PEM activity on an RNA template
O=C(O)c1ccc(-n2cc(-c3cc(C(=O)N4CCOCC4)cc(-c4cn(-c5ccc(C(=O)O)c(O)c5)nn4)n3)nn2)cc1O [Compound 51, 4,4′-((4-(morpholine-4-carbonyl)pyridine-2,6-diyl)bis(1H-1,2,3-triazole-4,1-diyl))bis(2-hydroxybenzoic acid)] | display PEM activity on an RNA template
CCNC(=O)c1cc(-c2cn(-c3ccc(C(=O)O)c(C(F)(F)F)c3)nn2)nc(-c2cn(-c3ccc(C(=O)O)c(C(F)(F)F)c3)nn2)c1 [Compound 73, 4,4′-((4-(ethylcarbamoyl)pyridine-2,6-diyl)bis(1H-1,2,3-triazole-4,1-diyl))bis(2-(trifluoromethyl)benzoic acid)] | display PEM activity on an RNA template
CCNC(=O)c1cc(-c2cn(-c3ccc(C(F)(F)F)c(C(=O)O)c3)nn2)nc(-c2cn(-c3ccc(C(F)(F)F)c(C(=O)O)c3)nn2)c1 [Compound 75, 5,5′-((4-(ethylcarbamoyl)pyridine-2,6-diyl)bis(1H-1,2,3-triazole-4,1-diyl))bis(2-(trifluoromethyl)benzoic acid)] | display PEM activity on an RNA template
CCNC(=O)c1cc(-c2cn(-c3ccc(C(=O)O)c(F)c3)nn2)nc(-c2cn(-c3ccc(C(=O)O)c(F)c3)nn2)c1 [Compound 76, 4,4′-((4-(ethylcarbamoyl)pyridine-2,6-diyl)bis(1H-1,2,3-triazole-4,1-diyl))bis(2-fluorobenzoic acid)] | display PEM activity on an RNA template
CCNC(=O)c1cc(-c2cn(-c3cc(C(=O)O)cc(C(F)(F)F)c3)nn2)nc(-c2cn(-c3cc(C(=O)O)cc(C(F)(F)F)c3)nn2)c1 [Compound 93, 5,5′-((4-(ethylcarbamoyl)pyridine-2,6-diyl)bis(1H-1,2,3-triazole-4,1-diyl))bis(3-(trifluoromethyl)benzoic acid)] | display PEM activity on an RNA template
O=C(NCCO)c1cc(-c2cn(-c3ccc(C(=O)O)c(C(F)(F)F)c3)nn2)nc(-c2cn(-c3ccc(C(=O)O)c(C(F)(F)F)c3)nn2)c1 [Compound 105, 4,4′-((4-((2-hydroxyethyl)carbamoyl)pyridine-2,6-diyl)bis(1H-1,2,3-triazole-4,1-diyl))bis(2-(trifluoromethyl)benzoic acid)] | display PEM activity on an RNA template
CCNC(=O)c1cc(-c2cn(-c3ccc(C(=O)O)c([N+](=O)[O-])c3)nn2)nc(-c2cn(-c3ccc(C(=O)O)c([N+](=O)[O-])c3)nn2)c1 [Compound 106, 4,4′-((4-(ethylcarbamoyl)pyridine-2,6-diyl)bis(1H-1,2,3-triazole-4,1-diyl))bis(2-nitrobenzoic acid)] | display PEM activity on an RNA template
CCNC(=O)c1cc(-c2cn(-c3ccc(C(=O)NCC(=O)O)c(C(F)(F)F)c3)nn2)nc(-c2cn(-c3ccc(C(=O)NCC(=O)O)c(C(F)(F)F)c3)nn2)c1 [Compound 110, 2,2′-((4,4′-((4-(ethylcarbamoyl)pyridine-2,6-diyl)bis(1H-1,2,3-triazole-4,1-diyl))bis(2-(trifluoromethyl)benzoyl))bis(azanediyl))diacetic acid] | display PEM activity on an RNA template
CCNC(=O)c1cc(-n2cc(-c3ccc(C(=O)O)c(C(F)(F)F)c3)nn2)cc(-n2cc(-c3ccc(C(=O)O)c(C(F)(F)F)c3)nn2)c1 [Compound 116, 4,4′-((5-(ethylcarbamoyl)-1,3-phenylene)bis(1H-1,2,3-triazole-1,4-diyl))bis(2-(trifluoromethyl)benzoic acid)] | display PEM activity on an RNA template
O=C(O)c1ccc(-n2cc(-c3ccc(-c4cn(-c5ccc(C(=O)O)c(C(F)(F)F)c5)nn4)o3)nn2)cc1C(F)(F)F [Compound 118, 4,4′-(furan-2,5-diylbis(1H-1,2,3-triazole-4,1-diyl))bis(2-(trifluoromethyl)benzoic acid)] | display PEM activity on an RNA template

The compounds below were run against T1, C4760 DNA polymerase (a variant of DPO4) (assay: not given). Settings: 0.5, 1, 1.52, or 2.5 Mm PEM, 30 minutes at 23 °C, FIG. 11.
Type: biochemical, Sulfolobus solfataricus
Experimental: (§1) PEM activity of compound 12 was tested in primer extension assays using the HIV2 100mer template. Primer extension reactions included the following reagents: 50 Mm TrisCl, 200 Mm NH4Oac, 20% PEG8K, 5% NMS, 0.6 nmol PP-60.20, 0.6 Mm MnCl2, 2.75 μg/μl Eco single-strand binding protein (SSB), 1 M urea, 50 pmol each XNTP, 1.1 pmol template, 1 pmol [COMPOUND LEFT OUT] primer, 1.2 μg/μl purified recombinant C4760 DNA polymerase (SEQ ID NO: 2), and 0.5, 1, or 1.5 Mm PEM. 10 μL primer extension reactions were run for 30 minutes at 23 °C and reaction products were analyzed by gel electrophoresis.
as §1, with “compounds 13 and 14” for “compound 12”, “(a variant of DPO4, see SEQ” for “(SEQ”, “1, 1.52,” for “1,”, “2.5” for “1.5”, “electrophoresis. A representative gel showing primer extension products is presented in FIG. 11 (the position of the full length HIV2 100mer is indicated by the arrow).” for “electrophoresis.”
PEM activity of compounds 16, 17, and 18 and combinations thereof were tested in primer extension assays using the HIV2-derived 100mer template. […] 10 μL primer extension reactions were run for 30 minutes at 37 °C and reaction products were analyzed by gel electrophoresis. A representative gel showing primer extension products is presented in FIG. 13 (the position of a 100mer product is indicated by the arrow).

Compound | XNTP polymerization relative to compound 10
Cc1cc(-c2cn(-c3ccc(C(=O)O)c(O)c3)nn2)nc(-c2cn(-c3ccc(C(=O)O)c(O)c3)nn2)c1 [Compound 13, 4,4′-((4-methylpyridine-2,6-diyl)bis(1H-1,2,3-triazole-4,1-diyl))bis(2-hydroxybenzoic acid)] | comparable to that of compound 10
CCOC(=O)c1cc(-c2cn(-c3ccc(C(=O)O)c(O)c3)nn2)nc(-c2cn(-c3ccc(C(=O)O)c(O)c3)nn2)c1 [Compound 14, 4,4′-((4-(ethoxycarbonyl)pyridine-2,6-diyl)bis(1H-1,2,3-triazole-4,1-diyl))bis(2-hydroxybenzoic acid)] | comparable to that of compound 10

Same assay, conditions: 0.5, 1, or 1.5 Mm PEM, 30 minutes at 23 °C, FIG. 10

Compound | XNTP polymerization relative to compound 10
N#Cc1cc(-c2cn(-c3ccc(O)c(C(=O)O)c3)nn2)nc(-c2cn(-c3ccc(O)c(C(=O)O)c3)nn2)c1 [Compound 12, 5,5′-((4-cyanopyridine-2,6-diyl)bis(1H-1,2,3-triazole-4,1-diyl))bis(2-hydroxybenzoic acid)] | comparable to that of compound 10

Same assay, conditions: compound 16 at 2 Mm; compound 17 at 0.5, 1, 2, 3 Mm; 30 minutes at 37 °C, FIG. 13

Compound | XNTP polymerization relative to compound 14
COC(=O)c1cc(-c2cn(-c3ccc(C(=O)O)c(O)c3)nn2)nc(-c2cn(-c3ccc(C(=O)O)c(O)c3)nn2)c1 [Compound 16, 4,4′-((4-(methoxycarbonyl)pyridine-2,6-diyl)bis(1H-1,2,3-triazole-4,1-diyl))bis(2-hydroxybenzoic acid)] | comparable to that of compound 14
CCNC(=O)c1cc(-c2cn(-c3ccc(C(=O)O)c(O)c3)nn2)nc(-c2cn(-c3ccc(C(=O)O)c(O)c3)nn2)c1 [Compound 17, 4,4′-((4-(ethylcarbamoyl)pyridine-2,6-diyl)bis(1H-1,2,3-triazole-4,1-diyl))bis(2-hydroxybenzoic acid)] | comparable to that of compound 14
